PubChem BioAssay AID330 (DTP/NCI, 2004)
Several values for one entry are separate records, joined by “and”; a condition that tells them apart may be missing. Equal values may be shown once. Toxic doses and inconclusive results are not listed. How the source made its calls: active means survival T/C of 150% or more; inactive means T/C below 125% in these data.

Tested on: P388 leukemia ip, CD2F1 mice, survival T/C
Test: NCI In Vivo Anticancer Drug Screen. Data for tumor model P388 Leukemia (intraperitoneal) in CD2F1 (CDF1) mice
Conditions: endpoint: median survival time, higher = longer survival
How it was run: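 Mice carrying the transplanted tumor received test compound or vehicle. Survival was recorded in each group, and the value is the treated-group measurement divided by that of the vehicle-treated control group.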

[1] = dose: 60.0 mg/kg/injection, schedule: Q01DX005 (ip), vehicle: saline with Tween-80
[2] = dose: 120.0 mg/kg/injection, schedule: Q01DX005 (ip), vehicle: saline with Tween-80
[3] = dose: 240.0 mg/kg/injection, schedule: Q01DX005 (ip), vehicle: saline with Tween-80
[4] = dose: 60.0 mg/kg/injection, schedule: Q01DX005 (ip), vehicle: Klucel (hydroxypropylcellulose) (HPC)
[5] = dose: 120.0 mg/kg/injection, schedule: Q01DX005 (ip), vehicle: Klucel (hydroxypropylcellulose) (HPC)

Measured: T/C

Cc1noc(C)c1C(=O)CCCCC(=O)O
inactive: [1] 102 % of control | [2] 95 % of control | [3] 104 % of control

Clc1ccc(-c2cc3cc4c(cc3[nH]2)Oc2ccccc2O4)cc1
inactive: dose: 17.5 mg/kg/injection, schedule: Q01DX009 (ip), vehicle: Klucel (hydroxypropylcellulose) (HPC) 107 % of control | dose: 35.0 mg/kg/injection, schedule: Q01DX009 (ip), vehicle: Klucel (hydroxypropylcellulose) (HPC) 103 % of control | dose: 70.0 mg/kg/injection, schedule: Q01DX009 (ip), vehicle: Klucel (hydroxypropylcellulose) (HPC) 103 % of control

COC(=O)C/C(C(=O)OC)=C1\CCCC2=C1N1CCCC1C2(CC(=O)OC)C(=O)OC (configuration not stated)
inactive: dose: 12.5 mg/kg/injection, schedule: Q01DX001 (ip), vehicle: Klucel (hydroxypropylcellulose) (HPC) 97 % of control | dose: 25.0 mg/kg/injection, schedule: Q01DX001 (ip), vehicle: Klucel (hydroxypropylcellulose) (HPC) 98 % of control | dose: 50.0 mg/kg/injection, schedule: Q01DX001 (ip), vehicle: Klucel (hydroxypropylcellulose) (HPC) 100 % of control

C=C(C)C(=O)OCCOc1ccc(/C=N/N=c2/sc3ccccc3n2C)cc1OC
inactive: dose: 50.0 mg/kg/injection, schedule: Q01DX009 (ip), vehicle: Klucel (hydroxypropylcellulose) (HPC) 105 % of control | dose: 100.0 mg/kg/injection, schedule: Q01DX009 (ip), vehicle: Klucel (hydroxypropylcellulose) (HPC) 97 % of control | dose: 200.0 mg/kg/injection, schedule: Q01DX009 (ip), vehicle: Klucel (hydroxypropylcellulose) (HPC) 108 % of control

Cc1c2ccncc2c(CNCCO)c2c3ccccc3n(C)c12
inactive: dose: 5.0 mg/kg/injection, schedule: Q01DX005 (ip), vehicle: saline 110 % of control | dose: 10.0 mg/kg/injection, schedule: Q01DX005 (ip), vehicle: saline 108 % of control | dose: 20.0 mg/kg/injection, schedule: Q01DX005 (ip), vehicle: saline 110 % of control

Cn1c(=O)c2cc(C(N)=O)c(=O)oc2n(C)c1=O
inactive: dose: 62.5 mg/kg/injection, schedule: Q01DX001 (ip), vehicle: Klucel (hydroxypropylcellulose) (HPC) 109 % of control | dose: 125.0 mg/kg/injection, schedule: Q01DX001 (ip), vehicle: Klucel (hydroxypropylcellulose) (HPC) 110 % of control | dose: 250.0 mg/kg/injection, schedule: Q01DX001 (ip), vehicle: Klucel (hydroxypropylcellulose) (HPC) 114 % of control

O=C(CCl)NNC1=Nc2ccc(Cl)cc2SC1
inactive: [1] 101 % of control | [2] 104 % of control | [3] 93 % of control

CCn1c(=NC(=O)c2ccccc2O)ccn1C
inactive: [4] 95 % of control | [5] 90 % of control | dose: 240.0 mg/kg/injection, schedule: Q01DX005 (ip), vehicle: Klucel (hydroxypropylcellulose) (HPC) 88 % of control

O=C(O)/C=N/NS(=O)(=O)c1cccc([N+](=O)[O-])c1
active: dose: 200.0 mg/kg/injection, schedule: Q01DX009 (ip), vehicle: other 160 % of control
inactive: dose: 25.0 mg/kg/injection, schedule: Q01DX009 (ip), vehicle: other 118 % of control and 119 % of control and 122 % of control | dose: 50.0 mg/kg/injection, schedule: Q01DX009 (ip), vehicle: other 117 % of control

O=C1OC(=O)N2CSCC12 (configuration not stated)
inactive: dose: 50.0 mg/kg/injection, schedule: Q01DX005 (ip), vehicle: Klucel (hydroxypropylcellulose) (HPC) 101 % of control | dose: 100.0 mg/kg/injection, schedule: Q01DX005 (ip), vehicle: Klucel (hydroxypropylcellulose) (HPC) 96 % of control | dose: 200.0 mg/kg/injection, schedule: Q01DX005 (ip), vehicle: Klucel (hydroxypropylcellulose) (HPC) 92 % of control

CC1(C)OC(=O)N=C1c1ccc(Br)cc1
inactive: [4] 100 % of control | [5] 104 % of control

CNC1=C(C(=O)c2ccccc2)CCC1
inactive: dose: 6.25 mg/kg/injection, schedule: Q01DX009 (ip), vehicle: saline 104 % of control | dose: 12.5 mg/kg/injection, schedule: Q01DX009 (ip), vehicle: saline 104 % of control | dose: 25.0 mg/kg/injection, schedule: Q01DX009 (ip), vehicle: saline 101 % of control | dose: 50.0 mg/kg/injection, schedule: Q01DX009 (ip), vehicle: saline 101 % of control | dose: 100.0 mg/kg/injection, schedule: Q01DX009 (ip), vehicle: saline 104 % of control and 87 % of control and 95 % of control | dose: 200.0 mg/kg/injection, schedule: Q01DX009 (ip), vehicle: saline 124 % of control and 90 % of control and 95 % of control

COc1ccc(C(C)=O)cc1CSC(=S)N1CCSCC1
inactive: dose: 15.0 mg/kg/injection, schedule: Q01DX005 (ip), vehicle: saline with Tween-80 104 % of control | dose: 30.0 mg/kg/injection, schedule: Q01DX005 (ip), vehicle: saline with Tween-80 99 % of control | [1] 90 % of control and 92 % of control | [3] 88 % of control
